The test system of series [1] is HepG2. The experiment in a line: Cytotoxicity in palmitate-induced insulin-resistant human HepG2 cells assessed as reduction in cell viability at 12.5 uM incubated for 24 hrs by MTT assay. The format is cell-based. To be noted: hepg2, 24 h. A general note: Formazan colour is commonly taken as a measure of viable cells.
In series [2] the test system is HepG2. The experiment in a line: Cytotoxicity in human HepG2 cells assessed as reduction in cell viability up to 12.5 uM incubated for 24 hrs by MTT assay. Particulars: hepg2, 24 h. The format is cell-based.
Series [3] deals with HepG2. Kind of series: Stimulation of glucose consumption in palmitate-induced insulin-resistant human HepG2 cells at 12.5 uM incubated for 24 hrs by glucose oxidase based assay. The format is functional, cell-based.
Series [4] has as its target RAC-alpha serine/threonine-protein kinase (Homo sapiens) (UniProt P31749). The experiment in a line: Activation of AKT in palmitate-induced insulin-resistant human HepG2 cells assessed as reduction in GLUT2 mRNA expression at 12.5 uM incubated for 24 hrs after 1 hr pre-incubation of cells with 0.5 uM AKT inhibitor […] by real-time PCR method. The series is classed as cell-based. (Quantitative PCR measures a nucleic acid by following its amplification.)

Series [5] shares this target. The experiment in a line: Activation of AKT in palmitate-induced insulin-resistant human HepG2 cells assessed as reduction in G6Pase mRNA expression at 12.5 uM incubated for 24 hrs after 1 hr pre-incubation of cells with 10 uM AMPK inhibitor compound C by real-time PCR method. The format is cell-based.
The target of series [6] is T1, AMP-activated protein kinase, AMPK (Homo sapiens) (UniProt P54646+O43741+P54619+Q9UGJ0+Q9Y478+Q13131+Q9UGI9). Kind of series: Activation of AMPK in palmitate-induced insulin-resistant human HepG2 cells assessed as increase in AMPK phosphorylation at 12.5 uM incubated for 24 hrs by Western blot method. The format is cell-based. On the technique in general: In western blotting, separated proteins are transferred to a membrane and probed.

The target of series [7] is RAC-alpha serine/threonine-protein kinase (Homo sapiens) (UniProt P31749). The experiment in a line: Activation of AKT in palmitate-induced insulin-resistant human HepG2 cells assessed as reduction in PEPCK mRNA expression at 12.5 uM incubated for 24 hrs after 1 hr pre-incubation of cells with 10 uM AMPK inhibitor compound C by real-time PCR method. The format is cell-based.

Series [8] shares this target. Kind of series: Activation of AKT in palmitate-induced insulin-resistant human HepG2 cells assessed as reduction in GLUT2 mRNA expression at 12.5 uM incubated for 24 hrs after 1 hr pre-incubation of cells with 10 uM AMPK inhibitor compound C by real-time PCR method. The series is classed as cell-based.
For series [9] the target is unchanged. The experiment in a line: Activation of AKT in palmitate-induced insulin-resistant human HepG2 cells assessed as reduction in G6Pase mRNA expression at 12.5 uM incubated for 24 hrs after 1 hr pre-incubation of cells with 0.5 uM AKT inhibitor […] by real-time PCR method. The format is cell-based.
For series [10], the target named is T1, AMP-activated protein kinase, AMPK (Homo sapiens). The experiment in a line: Activation of AMPK in palmitate-induced insulin-resistant human HepG2 cells assessed as reduction in PEPCK mRNA expression at 12.5 uM incubated for 24 hrs by real-time PCR method. The format is cell-based.
Series [11] concerns the target RAC-alpha serine/threonine-protein kinase (Homo sapiens) (UniProt P31749). Kind of series: Activation of AKT in palmitate-induced insulin-resistant human HepG2 cells assessed as increase in AKT phosphorylation at 12.5 uM incubated for 24 hrs by Western blot method. The series is classed as cell-based.
Series [12] has as its target T1, AMP-activated protein kinase, AMPK (Homo sapiens). The experiment in a line: Activation of AMPK in palmitate-induced insulin-resistant human HepG2 cells assessed as reduction in G6Pase mRNA expression at 12.5 uM incubated for 24 hrs by real-time PCR method. The series is classed as cell-based.
The target in series [13] is RAC-alpha serine/threonine-protein kinase (Homo sapiens) (UniProt P31749). The experiment in a line: Activation of AKT in palmitate-induced insulin-resistant human HepG2 cells assessed as reduction in PEPCK mRNA expression at 12.5 uM incubated for 24 hrs after 1 hr pre-incubation of cells with 0.5 uM AKT inhibitor […] by real-time PCR method. The series is classed as cell-based.

For series [14], the target named is T1, AMP-activated protein kinase, AMPK (Homo sapiens). The experiment in a line: Activation of AMPK in palmitate-induced insulin-resistant human HepG2 cells assessed as reduction in GLUT2 mRNA expression at 12.5 uM incubated for 24 hrs by real-time PCR method. The format is cell-based.
Series [15] shares this target. Kind of series: Activation of AMPK in palmitate-induced insulin-resistant human HepG2 cells assessed as reduction in G6Pase mRNA expression at 12.5 uM incubated for 24 hrs after 1 hr pre-incubation of cells with 10 uM AMPK inhibitor compound C by real-time PCR method. The format is cell-based.
For series [16] the target is unchanged. Kind of series: Activation of AMPK in palmitate-induced insulin-resistant human HepG2 cells assessed as reduction in PEPCK mRNA expression at 12.5 uM incubated for 24 hrs after 1 hr pre-incubation of cells with 10 uM AMPK inhibitor compound C by real-time PCR method. The format is cell-based.
For series [17] the target is unchanged. The experiment in a line: Activation of AMPK in palmitate-induced insulin-resistant human HepG2 cells assessed as reduction in GLUT2 mRNA expression at 12.5 uM incubated for 24 hrs after 1 hr pre-incubation of cells with 10 uM AMPK inhibitor compound C by real-time PCR method. The format is cell-based.
The nature of series [18]: Cytotoxicity in human HepG2 cells assessed as cell viability at 50 uM incubated for 24 hrs by MTT assay. The format is cell-based. To be noted: read-out: Activity.
Series [19] has as its system HepG2. The experiment in a line: Cytotoxicity in human HepG2 cells assessed as reduction in cell viability at 3.125 to 50 uM incubated for 24 hrs by MTT assay. The format is cell-based. Particulars: hepg2, 24 h.
Series [20] is described as follows: Cytotoxicity in human HepG2 cells assessed as cell viability at 25 uM incubated for 24 hrs by MTT assay. The series is classed as cell-based. Particulars: read-out: Activity.
Series [21] has as its system HepG2. The experiment in a line: Stimulation of glucose consumption in palmitate-induced insulin-resistant human HepG2 cells at 12.5 uM incubated for 24 hrs by glucose oxidase based assay relative to palmitate. The format is functional.

This passage reports Activity and viability results from ChEMBL document CHEMBL4130491, “Baicalin and its metabolites suppresses gluconeogenesis through activation of AMPK or AKT in insulin resistant HepG-2 cells” (Eur J Med Chem, 2017).

Each structure is given as a SMILES string. Activity calls are given as the source filed them. The calls are words filed in the database; no cut-off is given here.

Chain of RAC-alpha serine/threonine-protein kinase (Homo sapiens) (P31749 whole entry): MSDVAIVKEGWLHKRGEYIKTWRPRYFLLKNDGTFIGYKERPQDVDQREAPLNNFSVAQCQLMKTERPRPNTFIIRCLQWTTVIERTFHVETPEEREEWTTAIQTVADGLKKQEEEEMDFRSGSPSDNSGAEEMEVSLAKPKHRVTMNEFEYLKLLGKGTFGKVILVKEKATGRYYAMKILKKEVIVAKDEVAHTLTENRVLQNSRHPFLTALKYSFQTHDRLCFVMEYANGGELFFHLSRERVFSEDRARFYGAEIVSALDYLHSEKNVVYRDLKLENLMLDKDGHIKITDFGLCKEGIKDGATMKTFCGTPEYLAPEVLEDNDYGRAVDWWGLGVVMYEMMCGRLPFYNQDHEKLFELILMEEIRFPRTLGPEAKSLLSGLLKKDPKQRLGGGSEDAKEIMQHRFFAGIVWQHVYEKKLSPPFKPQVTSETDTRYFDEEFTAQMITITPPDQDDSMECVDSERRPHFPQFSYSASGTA

Turning to `COc1c(O[C@@H]2O[C@H](C(=O)O)[C@@H](O)[C@H](O)[C@H]2O)cc2oc(-c3ccccc3)cc(=O)c2c1O`, the Activity entry in the series on HepG2 [1] and in the series with HepG2 [2] was “Non-Toxic” throughout. Moreover, the outcome with HepG2 [3] was inactive. The result in [4] was Active.
Take `O=C(O)[C@H]1O[C@@H](Oc2cc3oc(-c4ccccc4)cc(=O)c3c(O)c2O[C@@H]2O[C@H](CO)[C@@H](O)[C@H](O)[C@H]2O)[C@H](O)[C@@H](O)[C@@H]1O`: the Activity entry in the series with HepG2 [1] and with HepG2 [2] was “Non-Toxic” in each case. Further, the outcome (in [5]; in series [6]; in [7]; in series [8]; in the series with HepG2 [3]; in [10]) was Active. Besides, the result in series [11], in series [12], in series [14] and in [4] was Active. The result in [9] and in series [13] was inactive.
As for `O=c1cc(-c2ccccc2)oc2cc(O)c(O)c(O)c12` [BAICALEIN], the outcome in series [15], in [16] and in [17] was inactive. Also, the Activity entry in the series on HepG2 [1] and in the series on HepG2 [2] was “Non-Toxic” throughout. Also, the result (in series [6]; in the series with HepG2 [3]; in series [10]; in series [11]; in series [12]; in series [14]) was Active. In addition, the result in series [4] was Active.
Take `O=C(O)[C@H]1O[C@@H](Oc2cc3oc(-c4ccccc4)cc(=O)c3c(O)c2O)[C@H](O)[C@@H](O)[C@@H]1O` [BAICALIN]: in series [18], the viability at 24 h, 50 µM was found to be 85%. Moreover, the Activity entry with HepG2 [1] and in the series with HepG2 [19] was “Non-Toxic” each time. In addition, the outcome (in series [6]; with HepG2 [3]; in series [10]; in series [12]; in series [14]) was Active. The result in series [16] and in series [17] was inactive. Besides, the viability at 24 h, 25 µM in series [20] turned out to be 85%.
Consider `CN(CCOc1ccc(CC2SC(=O)NC2=O)cc1)c1ccccn1` (configuration not stated) [ROSIGLITAZONE], for which the outcome (in [6]; in the series with HepG2 [3]; in [10]; in [12]; in series [14]) was Active. This molecule had an Activity in the series on HepG2 [21] of 7%.
